Our source for the melting point values is a melting point compilation (Tetko et al.).

What is called melting point is the temperature, or range, at which the solid turns liquid. Regarding `O=C(O)c1oc2ccccc2c1CSc1nnc[nH]1`, the melting point is 159 to 161 °C.
The result for `CCC(CC)CS(N)(=O)=O` reads 33 to 35 °C; that for `O=Cc1ccc(-c2ccc(Cl)c(Cl)c2)s1`, 126 to 128 °C.
`CC(C)COC(=O)Nc1cccc(N)c1` yielded a melting point of 92 to 94 °C.
For the compound `O=C(O)C1CCN(S(=O)(=O)c2ccc3c(c2)CCCC3)CC1`, the melting point is 181 to 183 °C.
On to `Cc1cc(Sc2ncccn2)ccc1N`, for which the melting point is 126 to 128 °C.
Compound `Cc1cccc(OCCNC(=O)C(C)Cl)c1` (stereo not given) came in with a melting point of 57 to 59 °C.
The result for `NC(=NO)c1ccc(N2CCCCC2)nc1` reads 165 to 167 °C.
The compound `O=C(CCl)N1N=C(c2cc3ccccc3o2)CC1c1ccco1` (stereo not given) came in with a melting point of 165 to 167 °C.
`NC(=O)CSc1ccccc1C(=O)O`: the melting point was 210 to 212 °C.
Turning to `NC(=O)c1cc(-c2ccccc2)sc1N`, the melting point fell in the range of 200 to 210 °C.
As for `CCc1c(-c2ccncc2)n[nH]c1N`, the figure is 154 to 156 °C.
For `CCCn1c(N)c(NCCOC)c(=O)[nH]c1=O`, the melting point was in the range of 193 to 195 °C.
The result for `CS(=O)(=O)Nc1ccccc1C#N` reads 99 to 101 °C; that for `O=S(=O)(c1ccc2c(c1)CCN2)N1CCCCC1`, 171 to 173 °C.
As for `N#Cc1cc(S(N)(=O)=O)ccc1Cl`, the figure is 219 to 221 °C.
In turn, `Cc1noc(C)c1S(=O)(=O)NC1(C(=O)O)CCCC1` yielded a melting point of 176 to 178 °C.
As to `Cc1c[nH]c(=O)n1-c1ccccc1N`, the melting point was in the range of 194 to 196 °C.
As for `C=CC(=O)NCc1ccc(F)cc1`, the figure is 118 to 120 °C.
Regarding `N#Cc1ccccc1Oc1cnccn1`, the melting point fell in the range of 73 to 75 °C.
`Nc1cnn(-c2ccc(C(F)(F)F)cc2)c1` yielded a melting point of 159 to 161 °C.
In turn, `O=C(O)c1cccc([N+](=O)[O-])c1N1CCOCC1` displayed a melting point of 196 to 198 °C.
For the compound `CC(C)CSc1ccc([N+](=O)[O-])cc1C(=O)O`, the melting point fell in the range of 189 to 191 °C.
Turning to `Nc1ccc(S(=O)(=O)C(F)(F)F)cc1N`, the melting point lay in the range of 109 to 111 °C.
As for `Cc1cc(C)c2nc(N)sc2c1`, the figure is 135 to 137 °C; as for `N#Cc1cccc(-n2cncn2)c1`, 150 to 152 °C.
The result for `O=C1COc2cc(S(=O)(=O)Cl)c(Br)cc2N1` reads 223 to 225 °C; that for `COc1ccc(Cl)cc1CS(=O)(=O)Cl`, 69 to 71 °C; that for `COc1cccc(NC(=O)C=CC(=O)O)c1`, 151 to 153 °C.
The result for `NC(=O)C1(N2CCNCC2)CCCC1` reads 138 to 140 °C.
In turn, `Cc1cc(C)c(CBr)c(C)c1` displayed a melting point of 49 to 51 °C.
As for `Cc1cc(C)n(-c2ccc(CC#N)cc2)n1`, the figure is 45 to 55 °C; as for `CC(C)(C)OC(=O)N1CCC(c2ccc(C(F)(F)F)cc2)C(N)C1` (stereo not given), 77 to 79 °C.
Turning to `COc1cc(OC)cc(C(N)c2nccn2C)c1` (stereo not given), the melting point was in the range of 99 to 101 °C.
The result for `CC(C)CCOc1ccc(C(=O)NN)cc1` reads 108 to 110 °C.
For the compound `Cc1ccc(C(=O)CCl)cc1C`, the melting point was in the range of 51 to 53 °C.
The result for `C#CCNC(=O)Nc1ccc(Cl)cc1` reads 211 to 213 °C.
In turn, `CC(C)(C)OC(=O)NC1(CN)CCCCCC1` registered a melting point of 77 to 79 °C.
The result for `Cc1csc(C2(N)CCCC2)n1` reads 59 to 61 °C.
As for `Nc1cccc(NC(=O)CCn2ccnc2)c1`, the figure is 125 to 127 °C.
As for `Cc1ccc(OCCC(=O)O)c(Br)c1`, the figure is 119 to 121 °C; as for `CC1(C)C(=O)NC(=O)N1CC#N`, 147 to 149 °C.
As for `NNc1nccc2sccc12`, the melting point fell in the range of 191 to 193 °C.
The result for `O=C(CCl)/N=c1\sccn1Cc1ccc(Cl)cc1Cl` reads 128 to 130 °C; that for `O=C(O)CNC(=O)c1cc(-c2ccccc2)on1`, 208 to 210 °C.
With `Cc1nc(-c2ccccc2)sc1N`, the melting point was in the range of 117 to 119 °C.
Turning to `CC(C)(C)Nc1nnc(S)s1`, the melting point fell in the range of 164 to 166 °C.
The result for `O=C(O)C1CCN(C(=O)CCOc2ccccc2)CC1` reads 127 to 129 °C; that for `Cc1ccc(O)c(C(=O)N2CCC(C(=O)O)CC2)c1`, 184 to 186 °C.
The result for `Cc1ccc(S(=O)(=O)NCCCN(C)C)cc1C(=O)O` reads 229 to 231 °C; that for `N#CCCc1c(Cl)cccc1Cl`, 40 to 42 °C.
As for `O=C1NCCc2ccc(Br)cc21`, the figure is 144 to 146 °C; as for `Nc1ccccc1C(=O)Nc1ccc(F)cc1`, 109 to 112 °C.
As for `O=C(O)CNC(=O)C1c2ccccc2C(=O)N1C1CC1` (stereo not given), the melting point fell in the range of 242 to 244 °C.
As for `CCC1(c2ccc(O)cc2)NC(=O)NC1=O` (stereo not given), the figure is 279 to 281 °C.
In the case of `O=C(CCl)NCc1ccccc1S(=O)(=O)N1CCOCC1`, the melting point lay in the range of 123 to 125 °C.
As for `O=C(O)C(NCc1ccccc1)C1CC1` (stereo not given), the figure is 228 to 230 °C; as for `CC(=O)NC(CC(N)=O)C(=O)O` (stereo not given), 168 to 170 °C.
The compound `OC1CC2CCCC(C1)N2Cc1ccccc1` (stereo not given) yielded a melting point of 57 to 59 °C.
The result for `N#Cc1ccc(S(=O)(=O)N2CCC(C(=O)O)CC2)cc1` reads 175 to 177 °C.
The result for `Cc1ccc(C)c(S(=O)(=O)N2CCN(C(=O)CCC(=O)O)CC2)c1` reads 143 to 145 °C; that for `O=C(O)CNS(=O)(=O)c1ccc(Cl)c([N+](=O)[O-])c1`, 150 to 152 °C; that for `O=C(O)c1cc(-c2cccc3ccccc23)nc2ccccc12`, 225 to 227 °C.
`Cc1ccc(C)c(NC(N)=S)c1` registered a melting point of 140 to 142 °C.
The result for `CCc1cc2c(=O)[nH]c(N3CCCC3)nc2s1` reads 253 to 255 °C.
As for `CCOc1ccc(S(=O)(=O)N(C)c2ccc(O)cc2)cc1`, the figure is 129 to 133 °C; as for `N#Cc1cc(C=O)ccc1F`, 80 to 84 °C.
`CCc1nc(NC(=O)CCl)sc1C` showed a melting point of 124 to 126 °C.
The result for `Nc1cc(S(=O)(=O)NC2CC2)ccc1F` reads 101 to 103 °C; that for `O=C(O)CCC(=O)c1ccc2c(c1)CCC2`, 123 to 125 °C.
The result for `Cc1ccc2c(O)c(C(=O)O)cnc2n1` reads 279 to 281 °C.
The compound `Nc1cccc(Oc2ccncc2)c1` returned a melting point of 107 to 109 °C.
The result for `O=C(CCl)NC(=O)Nc1ccccc1` reads 161 to 163 °C; that for `O=C(O)CSc1nncn1C1CC1`, 203 to 205 °C; that for `Cc1ccccc1Sc1ccc(C(=O)O)cc1`, 178 to 180 °C.
Regarding `Cc1cc(C(=O)O)nn1-c1ccc(Cl)cc1`, the melting point fell in the range of 139 to 141 °C.
The result for `Nc1cccc(S(=O)(=O)Nc2ccccc2Cl)c1` reads 110 to 112 °C; that for `CC(=O)Nc1cccc(NC(=O)CCl)c1`, 173 to 175 °C.
As for `O=Cc1cnc2ccccn12`, the figure is 118 to 120 °C; as for `O=C(O)c1cccc(OCc2cn3ccccc3n2)c1`, 197 to 199 °C; as for `COc1ccc2c(c1)CNC(c1ccccc1)C2` (stereo not given), 90 to 92 °C.
In the case of `COc1ccc2c(c1)C=C(C#N)CO2`, the melting point was 72 to 74 °C.
As for `COC(=O)C1CCC(C(=O)O)CC1` (stereo not given), the figure is 85 to 87 °C; as for `Cc1ccc(Cc2cnc(N)s2)cc1F`, 139 to 141 °C; as for `O=Cc1ccccc1-n1cncn1`, 113 to 115 °C.
